Values after ≈ are worked out from the molar mass of the structure shown.

Type in all cases: cell-based
Experiment [1] has as its system Pythium ultimum. Description: Amended agar assay (PDA), colony growth. Set-up: key to % control Pythium ultimum 20 ppm: D: no control detected at this concentration; C: up to 50% control; B: from 50 to 99% control; A: a control of greater than 99%, i.e. no detectable colony growth. The settings on record: for % control Pythium ultimum 20 ppm / inhibition of growth at 20 ppm: 20 ppm in amended PDA, 18° C., reduction in colony growth vs control plate; for EC50 / inhibition of growth at 20 ppm: Globisporangium ultimum; for EC50: amended agar, 5-fold dilutions. As to the method: (§1) Testing was carried out on potato dextrose agar (PDA) amended with each compound at a test concentration of 20 ppm. Amended agar was poured into three replicate 9 cm petri dishes. Each replicate dish was inoculated in the centre with a 5 mm agar plug taken from the leading edge of a culture aged between 2 and 7 days old; the age of the culture was dependant on the growth rate of the pathogen being tested. The test pathogens were Pythium ultimum and Phytophthora cinnamomi. Plates were incubated at 18° C. and the diameter of each colony measured before growth on the fastest growing plate reached the plate edge. This varied between 2 and 7 days depending on the growth rate of test pathogens. The % reduction in colony growth compared to the control plate was calculated for each pathogen. The results are provided in Table 1, in which D represents no control detected at this concentration; C represents up to 50% control; B from 50 to 99% control; and A represents a control of greater than 99%, i.e. no detectable colony growth.
(§2) Alternatively, or in addition, the same assay was conducted at descending test concentrations with 5-fold dilutions typically down to 0.032 ppm though sometimes as low as 0.00026 ppm, and an EC50 (the concentration at which 50% control would be achieved) was determined. The results are provided in Table 1 in which G represents an EC50 above 20 ppm, F represents an EC50 of 1-20 ppm and E represents and EC50 less than 1 ppm.

The test system of experiment [2] is Phytophthora cinnamomi. Description: Amended agar assay (PDA), colony growth. On the set-up: key to % control Phytophthora spp. 20 ppm: D: no control detected at this concentration; C: up to 50% control; B: from 50 to 99% control; A: a control of greater than 99%, i.e. no detectable colony growth. The settings on record: for inhibition of growth at 20 ppm / EC50: Phytophthora cinnamomi; for inhibition of growth at 20 ppm / % control Phytophthora spp. 20 ppm: 20 ppm in amended PDA, 18° C., reduction in colony growth vs control plate; for inhibition of growth at 20 ppm: read-out: % control Phytophthora spp. 20 ppm; for EC50: amended agar, 5-fold dilutions (cells without *), read-out: EC50 Phytophthora spp. The method, then:
as §1, §2

In experiment [3] the test system is oomycete plant pathogens. Briefly: Fungicidal activity testing, overall summary. The settings on record: summary statement on Table 1. As to the method:
The activity of compounds of the invention was assessed by testing against certain oomycete plant pathogens and representative data are presented in Table 1.

For `Cn1nnnc1-n1c(SCc2cccc(C(=O)O)n2)nc2ccccc21` [Compound 29], the “% control Pythium ultimum 20 ppm” value in experiment [1] is “D”. For the same molecule, the inhibition of growth at 20 ppm in experiment [2] is < 50%.

In the case of `Cn1nnnc1-n1c(SCc2cnc(Cl)s2)nc2ccccc21` [Compound 30], in experiment [1], the “% control Pythium ultimum 20 ppm” value is “D” and the concentration giving a half-maximal response (EC50) is > 20 µg/mL. Also, in experiment [2], the “% control Phytophthora spp. 20 ppm” value is “D” and the concentration giving a half-maximal response (EC50) is > 20 µg/mL.

`c1ccc(CSc2nc3ccccc3n2-c2ncon2)nc1` [Compound 31]: in experiment [1], the inhibition of growth at 20 ppm was < 50% and the EC50 is > 20 µg/mL. The half-maximal effective concentration (EC50) in experiment [2] was > 20 µg/mL.

Take `c1ccc(CSc2nc3ccccc3n2-c2ccccn2)nc1` [Compound 32]: the “% control Pythium ultimum 20 ppm” value in experiment [1] is on record as “D”. In addition, the “% control Phytophthora spp. 20 ppm” value in experiment [2] is on record as “D”.

For the molecule `O=C(Nc1cccc(CSc2nc3ccccc3n2-c2ccccn2)n1)C(F)(F)Oc1ccccc1` [Compound 33], in experiment [1], the “% control Pythium ultimum 20 ppm” value is reported as “D” and the concentration giving a half-maximal response (EC50) is > 20 µg/mL. Moreover, in experiment [2], the “% control Phytophthora spp. 20 ppm” value was “D” and the concentration for a half-maximal effect (EC50) was > 20 µg/mL.

For the molecule `Cn1nnnc1-n1c(SCc2cccc(NC(=O)C(F)(F)Oc3ccccc3)n2)nc2ccccc21` [Example 1, 2,2-Difluoro-N-(6-(((1-(1-methyl-1H-tetrazol-5-yl)-1H-benzo[d]imidazol-2-yl)thio)methyl)pyridin-2-yl)-2-phenoxyacetamide], the inhibition of growth at 20 ppm in experiment [1] and in experiment [2] was > 99% each time. Further, the EC50 in experiment [1] and in experiment [2] was < 1 µg/mL in each case. The “control over the pathogens tested” value in experiment [3] was “good to excellent control”.

Consider `Cn1nnnc1-n1c(SCc2csc(N)n2)nc2ccccc21` [Example 3], for which the inhibition of growth at 20 ppm in experiment [1] and in experiment [2] was > 99% in each case. Besides, the “control over the pathogens tested” value in experiment [3] is “good to excellent control”.

As to `Cc1cccnc1-n1c(SCc2cccc(NCC(F)(F)Oc3ccccc3)n2)nc2ccccc21` [Example 4], the concentration for a half-maximal effect (EC50) in experiment [1] and in experiment [2] was 1 to 20 µg/mL (≈ 1.99 to 39.7 µM) each time.

Turning to `Cn1nccc1-n1c(SCc2ccccn2)nc2ccccc21` [Example 5], the inhibition of growth at 20 ppm in experiment [1] and in experiment [2] was < 50% in each case.

Turning to `Cc1noc(-n2c(SCc3ccccn3)nc3ccccc32)c1C` [Example 6], the inhibition of growth at 20 ppm in experiment [1] and in experiment [2] was 50 to 99% throughout.

Regarding `Cn1nnnc1-n1c(SCc2ccccn2)nc2ccc(F)cc21` [Example 7], the concentration giving a half-maximal response (EC50) in experiment [1] and in experiment [2] was < 1 µg/mL each time. In addition, the “control over the pathogens tested” value in experiment [3] is recorded as “good to excellent control”.

In the case of `Cn1nnnc1-n1c(SCc2cccc(NC(=O)OC(C)(C)C)n2)nc2ccccc21` [Example 9], the EC50 in experiment [1] and in experiment [2] was < 1 µg/mL each time. The “control over the pathogens tested” value in experiment [3] was “good to excellent control”.

Consider `Cc1cccnc1-n1c(SCc2ccccn2)nc2ccccc21` [Example 10], for which the results for the inhibition of growth at 20 ppm in experiment [1] and in experiment [2] were 50 to 99% and < 50%, respectively.

Turning to `CC(=O)Nc1nc(CSc2nc3ccccc3n2-c2nnnn2C)cs1` [Example 11], the EC50 in experiment [1] and in experiment [2] was < 1 µg/mL each time. Besides, in experiment [3], the “control over the pathogens tested” value was “good to excellent control”.

As for `Cn1nnnc1-n1c(SCc2cscn2)nc2ccccc21` [Example 12], the EC50 in experiment [1] and in experiment [2] was < 1 µg/mL in each case. In experiment [3], the “control over the pathogens tested” value is “good to excellent control”.

Turning to `Cc1cccc(CSc2nc3ccccc3n2-c2nnnn2C)n1` [Example 13], in experiment [1], the inhibition of growth at 20 ppm was < 50% and the concentration for a half-maximal effect (EC50) was > 20 µg/mL. In addition, in experiment [2], the “% control Phytophthora spp. 20 ppm” value is reported as “D” and the EC50 is > 20 µg/mL.

Consider `Cc1cc(-n2c(SCc3ccccn3)nc3ccccc32)sn1` [Example 14], for which the inhibition of growth at 20 ppm in experiment [1] and in experiment [2] was < 50% each time.

As to `c1ccc(CSc2nc3ccccc3n2-c2ccon2)nc1` [Example 15], in experiment [1], the inhibition of growth at 20 ppm was < 50% and the concentration giving a half-maximal response (EC50) is > 20 µg/mL. Besides, in experiment [2], the “% control Phytophthora spp. 20 ppm” value is given as “D” and the concentration for a half-maximal effect (EC50) is > 20 µg/mL.

On to `Cc1nc(CSc2nc3ccccc3n2-c2nnnn2C)cs1` [Example 16], for which, in experiment [1], the inhibition of growth at 20 ppm was > 99% and the EC50 lay within 1 to 20 µg/mL (≈ 2.91 to 58.2 µM). Further, in experiment [2], the inhibition of growth at 20 ppm is 50 to 99% and the EC50 fell in the range of 1 to 20 µg/mL (≈ 2.91 to 58.2 µM). For the same molecule, the “control over the pathogens tested” value in experiment [3] is on record as “good to excellent control”.

Take `CNc1nc(CSc2nc3ccccc3n2-c2nnnn2C)cs1` [Example 17]: in experiment [1], the inhibition of growth at 20 ppm was > 99% and the concentration for a half-maximal effect (EC50) is < 1 µg/mL. Further, in experiment [2], the inhibition of growth at 20 ppm is > 99% and the EC50 was < 1 µg/mL. For the same molecule, the “control over the pathogens tested” value in experiment [3] was “good to excellent control”.

As to `COC(=O)c1cccc(CSc2nc3ccccc3n2-c2nnnn2C)n1` [Example 18], the inhibition of growth at 20 ppm in experiment [1] is < 50%. Besides, the “% control Phytophthora spp. 20 ppm” value in experiment [2] is listed as “D”.

For `Cn1nnnc1-n1c(SCc2cc3ccccc3cn2)nc2ccccc21` [Example 19], the inhibition of growth at 20 ppm in experiment [1] and in experiment [2] was 50 to 99% throughout.

As to `Cc1nccnc1-n1c(SCc2ccccn2)nc2ccccc21` [Example 20], in experiment [1], the inhibition of growth at 20 ppm is < 50% and the EC50 was > 20 µg/mL. Also, in experiment [2], the “% control Phytophthora spp. 20 ppm” value is reported as “D” and the EC50 was > 20 µg/mL.

Regarding `Cn1nnnc1-n1c(SCc2ccccn2)nc2c(F)cc(F)cc21` [Example 21], in experiment [1], the inhibition of growth at 20 ppm was > 99% and the EC50 is < 1 µg/mL. Moreover, in experiment [2], the inhibition of growth at 20 ppm was > 99% and the EC50 is < 1 µg/mL. For the same molecule, the “control over the pathogens tested” value in experiment [3] is “good to excellent control”.

In the case of `Cn1nnnc1-n1c(SCc2csc(NC(=O)C(F)(F)Oc3ccccc3)n2)nc2ccccc21` [Example 22], the half-maximal effective concentration (EC50) in experiment [1] and in experiment [2] was < 1 µg/mL each time. Also, the “control over the pathogens tested” value in experiment [3] was “good to excellent control”.

Take `Cn1nnnc1-n1c(SCc2csc(NC(=O)OC(C)(C)C)n2)nc2ccccc21` [Example 23]: the concentration giving a half-maximal response (EC50) in experiment [1] and in experiment [2] was < 1 µg/mL in each case. The “control over the pathogens tested” value in experiment [3] is given as “good to excellent control”.

For `COC(=O)CSc1nc2ccccc2n1-c1nnnn1C` [Example 24], the figures for the inhibition of growth at 20 ppm in experiment [1] and in experiment [2] were < 50% and 50 to 99%, respectively.

On to `Cn1nnnc1-n1c(SCc2cccc(N)n2)nc2ccccc21` [Example 26, 6-(((1-(1-Methyl-1H-tetrazol-5-yl)-1H-benzo[d]imidazol-2-yl)thio)methyl)pyridin-2-amine], for which the inhibition of growth at 20 ppm in experiment [1] and in experiment [2] was > 99% in each case. Moreover, the “control over the pathogens tested” value in experiment [3] was “good to excellent control”.

Consider `CC(=O)Nc1cccc(CSc2nc3ccccc3n2-c2nnnn2C)n1` [Example 27, N-(6-(((1-(1-Methyl-1H-tetrazol-5-yl)-1H-benzo[d]imidazol-2-yl)thio)methyl)pyridin-2-yl)acetamide], for which the results for the inhibition of growth at 20 ppm in experiment [1] and in experiment [2] were > 99% and 50 to 99%, respectively. Besides, the “control over the pathogens tested” value in experiment [3] is recorded as “good to excellent control”.

Regarding `CCOC(=O)Nc1cccc(CSc2nc3ccccc3n2-c2nnnn2C)n1` [Example 28, Ethyl (6-(((1-(1-methyl-1H-tetrazol-5-yl)-1H-benzo[d]imidazol-2-yl)thio)methyl)pyridin-2-yl)carbamate], the EC50 in experiment [1] and in experiment [2] was < 1 µg/mL in each case. Moreover, the “control over the pathogens tested” value in experiment [3] is “good to excellent control”.

For `O=C(Nc1cccc(CSc2nc3ccccc3n2-c2ncncc2Cl)n1)C(F)(F)Oc1ccccc1` [Example 45], the EC50 in experiment [1] and in experiment [2] was < 1 µg/mL each time. Further, the “control over the pathogens tested” value in experiment [3] is given as “good to excellent control”.

Turning to `COC(=O)c1cccc(CSc2nc3ccccc3n2-c2ncccc2C)n1` [Example 46], the “% control Pythium ultimum 20 ppm” value in experiment [1] is “D”. Moreover, the inhibition of growth at 20 ppm in experiment [2] is < 50%.

With `Cn1ccnc1-n1c(SCc2ccccn2)nc2ccccc21` [Example 49], in experiment [1], the inhibition of growth at 20 ppm was > 99% and the EC50 lay within 1 to 20 µg/mL (≈ 3.11 to 62.2 µM). Also, in experiment [2], the inhibition of growth at 20 ppm fell in the range of 50 to 99% and the concentration giving a half-maximal response (EC50) lay in the range of 1 to 20 µg/mL (≈ 3.11 to 62.2 µM). The “control over the pathogens tested” value in experiment [3] is recorded as “good to excellent control”.

`Cn1ccnc1-n1c(SCc2cccc(NC(=O)C(F)(F)Oc3ccccc3)n2)nc2ccccc21` [Example 50]: the EC50 in experiment [1] and in experiment [2] was < 1 µg/mL in each case. Besides, the “control over the pathogens tested” value in experiment [3] is reported as “good to excellent control”.
